“Also recorded” adds a separate entry of the source. Where two headings read alike, the source gives them in different places.
Assays:
[1] = from Wang and Newman (2008), cited from earlier work
[2] = Midpoint potential E1/2 by voltammetry vs Ag/AgCl (3M KCl); type: physicochemical; settings: for E1/2 (vs. Ag/AgCl (3M KCl))/mV: Example 15 table
Experimental: The purified redox-active molecule can be dissolved in aqueous solution at appropriate concentration in the presence of supporting electrolyte and buffer to select the pH of measurement. For example, the redox-active molecule can be dissolved in 10 μM-10 mM concentrations in distilled, deionized water (DDW). The supporting electrolyte can be a salt such as NaCl or KCl at 0.01-0.5 M concentrations, for example, dissolved in DDW. The buffer can be 10 mM ammonium acetate/3-(N-morpholino)propanesulfonic acid at pH 7, or phosphate-buffered saline (PBS) at pH 7.4, or sodium acetate buffer at pH 5, or di-sodium hydrogen phosphate/potassium dihydrogen phosphate at pH 9, or boric acid/citric acid/trisodium phosphate for a wide range of pH values, for example.
Voltammetric methods are then used to characterize the electrochemical behavior of the redox-active molecule in such solution, with a potentiostat such as a Gamry PC4-300, using a three-electrode setup with working electrode (glassy carbon, or platinum, or gold), counter electrode (platinum wire) and reference electrode (Ag/AgCl (3M KCl), or SCE, or NHE; values are reported relative to Ag/AgCl (3M KCl) which has potential +197 mV vs. NHE at 298K).
For example, cyclic voltammetry may be used. In a cyclic voltammetry experiment phenazines will show a peak on the cathodic sweep (denoted Epc) corresponding to the reduction of the redox molecule.
The reverse, anodic sweep will show a peak (denoted Epa) corresponding to the re-oxidation of the redox molecule. If the electrode reaction is diffusion-controlled and reversible, the cathodic and anodic peak currents will be equal in area, and the mid-point between these peaks may be taken as the formal reduction potential of the redox molecule under the experimental conditions used. This value can interchangeably be referred to as the “midpoint potential” or “mid-peak potential”, denoted E1/2.
PYO was purified from aerobic bacterial cultures and was dissolved in 0.1 M KCl aqueous solution buffered with 10 mM ammonium acetate-3-(N-morpholino)propanesulfonic acid (5 mM each, pH 7) to yield a stock solution concentration of 829 μM PYO. Electrochemical measurements were performed with a Gamry PC4-300 potentiostat. A stationary gold disk electrode (BASi) was used as the working electrode, an Ag/AgCl electrode (RE-51, BASi) as the reference, and a straight platinum wire (BASi) was the counter electrode. Scans were performed between 20 and 500 mV/s in the potential range of around E1/2 (+/−300 mV), at 298 K.
As described in en.wikipedia.org/wiki/Nernst_equation, the Nernst equation relates E1/2 measured at pH 7 to the E1/2 at a different pH by:
[formula] • where E1/2 is in V • h is the number of protons transferred in the electrochemical reaction • e is the number of electrons transferred in the electrochemical reaction

[3] = oxidized form; literature values (footnotes a, c, d); cited from earlier work
PA14 [4] = test: Redox cycles over 7 days and support of survival (Table 4); type: cell-based, P. aeruginosa
Text: (§1) Phenazines and other redox active compound in the sense of the disclosure can be further characterized by various electrical properties such as a standard electrode potential E° vs. NHE of −500 mV to 500 mV and other properties such as number of redox cycle over a certain period of time (e.g. number of days) as ability to support survival and susceptibility to reduction by enzymes and/or bacterial strains.

PA14 [5] = test: Reduction of redox-active compound by PA14 (Table 4); type: cell-based, P. aeruginosa
Text: as §1

[6] = tested on: P. aeruginosa PA14 biofilms; test: Anoxic survival (CFU) of electrode-attached wild type biofilms at poised potential with sub-MIC antibiotics; type: cell-based, P. aeruginosa UCBPP-PA14; settings: for decrease in cell survival under PYO-reductive conditions compared with OC: −400 mV vs OC, 1 μg/mL meropenem or 4 μg/mL ciprofloxacin; for effect on wild type biofilms under PYO-reductive conditions (in words): anoxic, sub-MIC antibiotic
Experimental: (§2) Electrochemical reactors and biofilm growth. Double-jacketed electrochemical reactors (Pine Instruments, 250 ml, wide center port 29/26) were used with ITO-coated 0.2 mm thick boro-aluminosilicate glass slides (Delta Technologies, 24×60 mm, Rs=7-10Ω) as working electrodes, freshly sanded graphite rods (Alfa Aesar) as counter electrodes, and Ag/AgCl in 3M KCl reference electrodes (BASi). Silver epoxy (Electron Microscopy Sciences) was used to make electrical connection between insulated wire ([…]) and working electrode and was insulated using 5 Minute® expoxy (Devcon). Working electrodes were assembled within 5 hours of use. Reactors were sterilized by autoclaving without reference or working electrodes, which were sterilized by submerging in 10% bleach for 5 minutes or 30 seconds, respectively, and rinsed in sterile water. Individual mid-log liquid cultures (OD600 0.45-0.55) were used to inoculate sterile reactors containing 140 ml of MM (described above) with 0.1% (vol/vol) for each biological replicate. Antibiotics were not added at this point. Working electrodes were poised at either open circuit, +100 mV, or −400 mV vs. Ag/AgCl (+310 mV and −190 mV vs the standard hydrogen electrode, respectively). Reactors were aerated using an aquarium pump with a 0.2 μm filter (Thermo Scientific) and heated to 31° C. using a circulating water bath (Haake A 25, Thermo Scientific). Fresh medium was exchanged every 24 hours for 5 days. After 5 days of aerobic growth, working electrode-attached biofilms were rinsed in sterile medium to remove planktonic cells and transferred to sterile reactors with fresh MM previously flushed for 2 hours with N2 ultra-high purity gas (NRL supply store). For antibiotic exposure experiments, antibiotics were added to sterile media before flushing with N2. For PYO-addition experiments, 10 μM PYO (Cayman Chemical) was added to in the MM before flushing with N2. Working electrodes were poised to their corresponding potential and biofilms were incubated for an additional 72 hours under N2 flushing at 31° C.
Biofilm harvesting and processing. After 72 hours of incubation under anoxic conditions, electrode-attached biofilms were rinsed in sterile media. The biofilms within the bottom 3.12 cm^2 of each working electrode were scraped off using a cell scraper (Sarstedt) and resuspended in antibiotic-free MM. Serial dilutions were prepared in sterile antibiotic-free MM and plated on antibiotic-free LB. The rest of the electrode-attached biofilms were incubated at room temperature in freshly-made 2 μM TOTO-1 and 10 μM SYTO-60 (Invitrogen) in MM for 15 minutes and rinsed 2× in sterile MM for 15 minutes. Imaging was done with an upright Zeiss LSM 800 microscope with Airyscan and a 40× oil immersion lens. SYTO-60 was excited with a 561 nm; 0.20% laser and emission was recorded from 580-700 nm. TOTO-1 was excited with a 488 nm; 0.20% laser and emission was recorded from 490 to 580 nm.
In order to test the effect of antibiotic in combination with application of a difference in voltage to P. aenuginosa, sub-MICs of gentamicin, meropenem, ciprofloxacin, and colistin were added to anoxic survival reactors set up as described in Examples 1 and 2.

[7] = vs NHE at pH7; cited from earlier work
Δphz* biofilms = test: Anoxic survival (CFU) of electrode-attached phenazine-deficient biofilms at poised potential; type: cell-based, P. aeruginosa UCBPP-PA14; Δphz*; settings: 4 μg/mL gentamicin, −400 mV, absence of phenazines
Experimental: as §2, with “For PYO-addition experiments, 10 μM PYO (Cayman Chemical) was added to in the MM before flushing with N2. Working electrodes were poised to their corresponding potential and biofilms were incubated for an additional 72 hours under N2 flushing at 31° C.” left out
Biofilm harvesting and processing. […] SYTO-60 was excited with a 561 nm; 0.20% laser and emission was recorded from 580-700 nm. TOTO-1 was excited with a 488 nm; 0.20% laser and emission was recorded from 490 to 580 nm.

Compound: O=C(O)c1cccc2nc3ccccc3nc12 [Phenazine-1-carboxylate (PCA), Phenazine-1-carboxylate]
- E1/2 (vs. Ag/AgCl (3M KCl))/mV ([1]; pH 5): −185 mV
- E1/2 (vs. Ag/AgCl (3M KCl))/mV ([1]; pH 6): −257 mV
- E1/2 (vs. Ag/AgCl (3M KCl))/mV ([1]; pH 7): −313 mV
- E1/2 (vs. Ag/AgCl (3M KCl))/mV ([2]; pH 5): −185 mV
- E1/2 (vs. Ag/AgCl (3M KCl))/mV ([2]; pH 6): −257 mV
- E1/2 (vs. Ag/AgCl (3M KCl))/mV ([2]; pH 7): −313 mV
- E0' (vs. NHE) (mV) [3]: −114^a mV
- Support survival? (PA14 [4]): Yes
- # of Redox cycles over 7 days (PA14 [4]; over 7 days): 22
- Reduction by PA14? (PA14 [5]): Yes

Compound: NC(=O)c1cccc2nc3ccccc3nc12 [XXV, phenazine-1-carboxamide]
- E1/2 (vs. Ag/AgCl (3M KCl))/mV ([1]; pH 5): −205 mV
- E1/2 (vs. Ag/AgCl (3M KCl))/mV ([1]; pH 6): −278 mV
- E1/2 (vs. Ag/AgCl (3M KCl))/mV ([1]; pH 7): −337 mV
- E1/2 (vs. Ag/AgCl (3M KCl))/mV ([2]; pH 5): −205 mV
- E1/2 (vs. Ag/AgCl (3M KCl))/mV ([2]; pH 6): −278 mV
- E1/2 (vs. Ag/AgCl (3M KCl))/mV ([2]; pH 7): −337 mV

Compound: O=C(O)c1cn(C2CC2)c2cc(N3CCNCC3)c(F)cc2c1=O [ciprofloxacin]
- decrease in cell survival under PYO-reductive conditions compared with OC [6]: ~100 ×

Compound: NC1=C(C(=O)O)C(=O)c2ccccc2C1=O [drawing 45]
- E1/2 (vs. Ag/AgCl (3M KCl))/mV ([2]; pH 7): −250 mV

Compound: C[C@@H](O)[C@H]1C(=O)N2C(C(=O)O)=C(S[C@@H]3CN[C@H](C(=O)N(C)C)C3)[C@H](C)[C@H]12 [meropenem]
- decrease in cell survival under PYO-reductive conditions compared with OC [6]: ~100 ×

Compound: Menaquinone [Menaquinone ox/red]
- Redox potentials E (mV) [7]: −75 mV

Compound: NAD/NADH
- midpoint potential vs Ag/AgCl ([2]; aqueous environment at pH7): −600 mV
- Redox potentials E (mV) [7]: −320 mV

Compound: O2/H2O
- Redox potentials E (mV) [7]: +820 mV

Compound: Ubiquinone [Ubiquinone ox/red]
- Redox potentials E (mV) [7]: +113 mV

Compound: colistin
- decrease in CFUs under PYO-oxidative conditions compared with nontreated biofilms ([6]; +100 mV, 10 μg/mL colistin vs no antibiotic): 10 ×
- effect on wild type biofilms under PYO-reductive conditions (in words) ([6]; −400 mV vs Ag/AgCl): did not show an additive effect

Compound: gentamicin
- CFU/cm^2 ± SE, −400 mV (PYO-reductive conditions) ([6]; wild type biofilms, 72 h anoxic, −400 mV vs Ag/AgCl, n=3, 4 μg/mL gentamicin, 1 μg/mL meropenem, 4 μg/mL ciprofloxacin): 21.4±10.7 CFU/cm^2
- effect on wild type biofilms under PYO-reductive conditions (in words) ([6]; −400 mV vs Ag/AgCl): almost fully eradicated WT biofilms; also recorded: almost completely eradicated wild type biofilms
- effect on Δphz* biofilms under PYO-reductive conditions (in words) (Δphz* biofilms): did not affect Δphz* biofilms; also recorded: had no effect on the survival of Δphz* biofilms
